Measurements published in patent US11066425B1, “Oxo-substituted compound” (SUMITOMO DAINIPPON PHARMA CO., LTD., priority 2018, dated 2021).
Values joined by “and” are separate entries in the source; they are usually repeats but may differ in a detail not shown here. Equal entries are not always repeated. Structures can show the parent of a compound that is named as a salt.

Tests used:
[1] = test system: β-lactamase producing bacteria; test: Test Example 3: MIC of meropenem (MEPM) combined with test compound at fixed 4 μg/mL, broth microdilution, ratio to MEPM alone; assay type: cell-based; conditions: for MIC of MEPM alone: no test compound, denominator of the cell, comparator for the example, in µg/mL; for MIC of MEPM in combination with a test compound: test compound at fixed 4 μg/mL, numerator of the cell
Protocol: Test Example 3: Evaluation of Minimum Inhibitory Concentration (MIC) of MEPM Against β-Lactamase Producing Bacteria
To evaluate the β-lactamase inhibitory activity of test compounds, the effect of combination of a test compound and a β-lactam agent against β-lactamase producing bacteria was evaluated. Meropenem (MEPM) was used as a β-lactam antimicrobial agent. The minimum inhibitory concentration (MIC) of MEPM against β-lactamase producing bacteria when a test compound was added at a fixed concentration (4 μg/mL) was measured by broth microdilution method (common ratio: 2).

[2] = test system: β-lactamase producing bacteria; test: Test Example 1: MIC of meropenem (MEPM) combined with test compound at fixed 4 μg/mL, broth microdilution; assay type: cell-based; conditions: relative to MEPM alone
Procedure, shortened: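 Meropenem MIC against β-lactamase producing bacteria measured by broth microdilution (2-fold series) with test compound held at 4 μg/mL.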

[3] = K. pneumoniae ATCC BAA-2524 (OXA-48)
[4] = K. pneumoniae ATCC BAA-2344 (KPC)

Row | Molecule | MIC of MEPM in combination with a test compound [1, 4] [µg/mL] | MIC of MEPM in combination with a test compound [1, 3] [µg/mL] | also measured
1 | C[C@@H](O)[C@H]1C(=O)N2C(C(=O)O)=C(S[C@@H]3CN[C@H](C(=O)N(C)C)C3)[C@H](C)[C@H]12 [MEPM, meropenem, reference compound] | – | – | MIC of MEPM alone ([1]; E. coli ATCC BAA-2340 (KPC)): 4 and 8; MIC of MEPM alone [1, 3]: 2 and 1
2 | 4,4-dihydroxy-8-({1-[3-(pyrrolidin-2-yl)propanoyl]azetidin-3-yl}oxy)-5-oxa-4-boranuidabicyclo[4.4.0]deca-l(6),7,9-triene-7-carboxylic acid disodium salt [Example 118] | ≤ 0.063 | ≤ 0.063 | –
3 | Cl.Cl.NC(C(=O)N1CC(Oc2ccc3c(c2C(=O)O)OB(O)CC3)C1)c1c[nH]cn1 (centres unmarked) [Example 40, 7-({1-[2-amino-2-(1H-imidazol-4-yl)(2H)ethanoyl]azetidin-3-yl}oxy)-2-hydroxy-3,4-dihydro-2H-1,2-benzoxaborinine-8-carboxylic Acid Dihydrochloride] | 0.063 | 0.063 | –
4 | O=C(O)c1c(OC2CN(C(=O)C[C@@H]3CCCN3)C2)ccc2c1O[B-](O)(O)CC2.O=C(O)c1c(OC2CN(C(=O)C[C@@H]3CCCN3)C2)ccc2c1O[B-](O)(O)CC2.[Na+].[Na+] [Example 127, 4,4-dihydroxy-8-[(1-{[(2S)-pyrrolidin-2-yl]acetyl}azetidin-3-yl)oxy]-5-oxa-4-boranuidabicyclo[4.4.0]deca-l(6),7,9-triene-7-carboxylic acid disodium salt] | ≤ 0.063 | ≤ 0.063 | –
5 | O=C(O)c1c(OC2CN(C(=O)c3cccc[n+]3[O-])C2)ccc2c1O[B-](O)(O)CC2 [Example 9, 4,4-dihydroxy-8-{[1-(1-oxido-2-pyridinylcarbonyl)azetidin-3-yl]oxy}-5-oxa-4-boranuidabicyclo[4.4.0]deca-l(6),7,9-triene-7-carboxylic acid disodium salt] | – | – | Decrease of MIC of MEPM in combination with a test compound, E. coli ATCC BAA-2340 (KPC) ([2]; E. coli ATCC BAA-2340 (KPC)): A (MIC of MEPM decreasing to less than 1/32 in combination with a test compound is indicated by A); Decrease of MIC of MEPM in combination with a test compound, K. pneumoniae ATCC BAA-2344 (KPC) [2, 4]: A (MIC of MEPM decreasing to less than 1/32 in combination with a test compound is indicated by A); Decrease of MIC of MEPM in combination with a test compound, K. pneumoniae ATCC BAA-2524 (OXA-48) [2, 3]: A (MIC of MEPM decreasing to less than 1/32 in combination with a test compound is indicated by A)
